Results as given in BindingDB's records for doi:10.1021/jm300185p (Takeda Pharmaceutical, 2012).

Molecular target: Mitogen-activated protein kinase kinase kinase 7 (TAK1 kinase) (Homo sapiens) (UniProt O43318)
Assay: Inhibition of N-terminus FLAG-tagged TAK1 expressed in baculovirus expression system using [gamma-33P]-ATP measured after 60 mins by scintillation counting

Chain of Mitogen-activated protein kinase kinase kinase 7 (TAK1 kinase) (Homo sapiens) (O43318 whole entry, looked up): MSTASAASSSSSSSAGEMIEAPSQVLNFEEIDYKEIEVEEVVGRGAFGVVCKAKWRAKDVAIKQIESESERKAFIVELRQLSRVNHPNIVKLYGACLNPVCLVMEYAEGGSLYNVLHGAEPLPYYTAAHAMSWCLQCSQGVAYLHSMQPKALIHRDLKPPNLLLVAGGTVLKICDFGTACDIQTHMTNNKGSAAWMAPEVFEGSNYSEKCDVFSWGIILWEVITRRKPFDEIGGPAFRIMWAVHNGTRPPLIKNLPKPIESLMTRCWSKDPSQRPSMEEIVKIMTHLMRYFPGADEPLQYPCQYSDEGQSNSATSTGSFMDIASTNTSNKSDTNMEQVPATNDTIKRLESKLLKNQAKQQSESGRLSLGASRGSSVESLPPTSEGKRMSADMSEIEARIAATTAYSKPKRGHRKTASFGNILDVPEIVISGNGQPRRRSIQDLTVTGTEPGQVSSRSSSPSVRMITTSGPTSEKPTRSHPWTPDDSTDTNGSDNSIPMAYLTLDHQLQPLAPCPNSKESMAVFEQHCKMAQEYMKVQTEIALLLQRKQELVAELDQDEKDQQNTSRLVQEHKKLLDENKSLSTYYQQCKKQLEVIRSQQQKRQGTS

IC50: > 10 µM
SMILES: CC(C)(N)C(=O)NCCn1ccc2ncnc(Nc3ccc(Oc4cccc5sncc45)c(Cl)c3)c21
